Experimental data reported in patent publication US7115721B2, “Microorganism, its product and utilization thereof” (Astellas Pharma Inc., priority 2002, dated 2006).
pIC50: −log10 of the molar value. ≈ marks a conversion by molar mass, not a printed value. Read-outs that look alike come from different tables or passages of the source.

Experiments:
[1] = system: B16 melanoma (B-16/2D2 cells); assay: Inhibitory activity to melanogenesis of B16 melanoma (extracellular and intracellular melanin, amount of proteins); assay type: cell-based; conditions: for IC50: Mus musculus, B16, 120 h
Procedure: Inhibitory Activity to Melanogenesis of B16 Melanoma
(§1) About 2.0×10^5/ampoule B16 melanoma cell strain preserved in a frozen state in liquid nitrogen was dissolved in a water bath at 37° C. and immediately suspended in 10 ml of a culture medium. After centrifugation at 800 rpm for five minutes, the supernatant liquid was discarded and the cells were suspended in 10 ml of a fresh culture medium. The suspension was again centrifuged under the same conditions, the supernatant liquid was discarded, and the cells were again suspended in a fresh culture medium.
(§2) About 4.0×10^5 cells were seeded in a 75 cm^2 flask. The cells were cultured at 37° C. in a 5% CO2 atmosphere for one week while replacing the medium every 2–3 days. The culture medium in which the cells have grown to bring the medium into a subconfluent state was discarded. The surface of the cultured cells was washed with PBS(−), following which the cells were stripped using 0.25% trypsin. A medium containing serum was added to terminate the trypsin reaction. After loosening the cells by pipetting, the cell suspension was transferred to a centrifugal tube. After centrifugation at 800 rpm for five minutes, the supernatant liquid was discarded and the cells were suspended in a fresh culture medium (not containing phenol red). The number of cells was counted using a cytometer.
The cell suspension was diluted with a medium (not containing phenol red) to make the cell concentration 2×10^5 cells/ml. The resulting suspension was seeded in a 96-well plate in an amount of 100 μl/well. The cells were incubated at 37° C. in a 5% CO2 atmosphere for one day. Solutions of the compound (I) of the present invention at various concentrations were prepared in a medium (not containing phenol red). The resulting solutions were added to a 96-well plate in an amount of 100 μl/well. The cells were incubated at 37° C. in a 5% CO2 atmosphere for five days and evaluated according to the following method.
1. Amount of Extracellular Melanin
The culture medium was transferred to an assay plate in an amount of 150 μl/well while taking care so that foam was not produced to measure OD450 using a microplate reader.
2. Amount of Intracellular Melanin
The plate containing the cells was inverted to discard the remaining culture medium. 0.1 N NaOH-0.1% Triton X-100 was added in an amount of 150 μl/well to dissolve the cells by pipetting. The culture medium was transferred to an assay plate in an amount of 100 μl/well to measure OD450 using a microplate reader.
Distilled water was added to the assay plate in an amount of 156 μl/well. Then, 4 μl/well of the cell solution remaining after measuring the amount of intracellular melanin was added. Next, 40 μl/well of a Bio-rad protein assay die solution was added, followed by shaking for two minutes. After allowing to stand for five minutes, OD590 was measured using a microplate reader.

[2] = system: melanin pigmentation of skin after exposure to sunlight; assay: Whitening effect on skin of subjects exposed to sunlight; assay type: in vivo, human; conditions: for Whitening effect: applied morning and evening over four weeks, 20 subjects
Procedure: The whitening effect of the compound (I) of the present invention was measured according to the following method. 20 subjects were exposed to sunlight for […] from 11:00 a.m. to 1:00 p.m. over two days in summer. Five days after the exposure to sunlight, a water phase and an alcohol phase having compositions respectively shown in FIG. 5 and FIG. 6 were mixed and dissolved, and the solution was applied to the skin on the medial side of the upper arm of each exposed subject once for every morning and evening over four weeks. [table] [table] After four weeks, the whitening effect was judged for each subject. The effect was judged according to the following standards.

[3] = target: Tyrosinase originating from mushroom; assay: Inhibitory activity to tyrosinase originating from mushroom; assay type: biochemical; conditions: L-dopa substrate, pH 6.8, 25° C., 10 minutes
Procedure: Inhibitory Activity to Tyrosinase Originating from Mushroom Tyrosinase originating from mushroom (Sigma company) was dissolved in a 0.05 M phosphate buffer (pH 6.8) to a concentration of 20 U/ml. L-dopa was adjusted to a concentration of 0.3 mg/ml with a 0.05 M phosphate buffer (pH 6.8). A 96-well plate was charged with 30 μl of the L-dopa solution and 30 μl of solutions of the compound (I) of the present invention at various concentrations, immediately followed by mixing with 30 μl of the tyrosinase solution originating from mushroom. After incubation at 25° C. for 10 minutes, the absorbance at 450 nm was measured using a microplate reader.

[4] = target: T1, tyrosinase originating from B16 melanoma (Mus musculus, UniProt P11344); assay: Inhibitory activity to tyrosinase originating from B16 melanoma; assay type: biochemical; conditions: crude enzyme solution, L-dopa substrate, pH 6.8, 25° C., two hours
T1 construct: The supernatant liquid was collected and preserved in ice until the time it was used (crude enzyme solution); endogenous in cells; host or cells: B16 melanoma cells, homogenate supernatant (crude enzyme solution)
T1 sequence (P11344 19-533): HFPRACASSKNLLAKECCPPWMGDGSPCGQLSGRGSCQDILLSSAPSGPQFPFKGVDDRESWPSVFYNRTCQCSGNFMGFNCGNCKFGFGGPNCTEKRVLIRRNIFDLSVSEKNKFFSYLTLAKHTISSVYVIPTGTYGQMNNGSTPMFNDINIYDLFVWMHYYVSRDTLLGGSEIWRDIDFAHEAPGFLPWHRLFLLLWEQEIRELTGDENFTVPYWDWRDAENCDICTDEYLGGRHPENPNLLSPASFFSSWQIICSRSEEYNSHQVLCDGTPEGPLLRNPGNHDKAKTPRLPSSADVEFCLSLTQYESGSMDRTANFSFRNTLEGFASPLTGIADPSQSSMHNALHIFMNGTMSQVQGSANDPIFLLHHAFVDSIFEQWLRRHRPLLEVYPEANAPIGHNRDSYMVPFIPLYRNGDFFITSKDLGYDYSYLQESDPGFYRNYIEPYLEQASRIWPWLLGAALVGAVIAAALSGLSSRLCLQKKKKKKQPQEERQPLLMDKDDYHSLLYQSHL
Procedure: Inhibitory Activity to Tyrosinase Originating from B16 Melanoma
as §1
as §2, with “After centrifugation at 800 rpm for five minutes, the supernatant liquid was discarded and the cells were suspended in a fresh culture medium (not containing phenol red).” left out, “cytometer. […]” for “cytometer.”
L-dopa was adjusted to a concentration of 0.8 mg/ml with the 0.05 M phosphate buffer (pH 6.8). […] Then, the absorption at 475 nm was measured.

[5] = concentration in which whitening actions were clearly exhibited

[C-]#[N+]/C=C/c1ccc(O[C@@H]2O[C@@H](C)[C@H](O)[C@@H](O)[C@H]2O)cc1 [Compound (I), (E)-4-(2-isocyanovinyl)phenyl α-L-rhamnopyranoside]
IC50 ([1]; read-out: IC50 Extracellular melanogenesis): 0.052 µg/mL (≈ 0.179 µM) | IC50 ([1]; read-out: IC50 Intracellular melanogenesis): 0.074 µg/mL (≈ 0.254 µM) | IC50 ([1]; read-out: IC50 Protein synthesis): 0.9 µg/mL (≈ 3.09 µM) | Effects on the amount of proteins in the cells [1, 5]: nor were there any effects | Effects on the number of grown cells [1, 5]: nor were there any effects | Morphological changes in the cells by microscopic inspection [1, 5]: no morphological changes | Whitening effect ([2]; 0.1 wt % test agent): Good (50–80% of subjects exhibited a complete response or partial response) | Whitening effect ([2]; 0.3 wt % test agent): Good (50–80% of subjects exhibited a complete response or partial response) | Abnormalities of the skin (erythema, edema) or side effects ([2]; topical application over four weeks in subjects): neither abnormalities of the skin, such as erythema or edema, nor any side effects | IC50 Mushroom tyrosinase [3]: 1.9 ng/mL (≈ 0.00652 µM) | pIC50 [4]: 8.73

Oc1ccc(O)cc1 [Hydroquinone, reference compound]
Whitening effect ([2]; 1.0 wt % test agent): Good (50–80% of subjects exhibited a complete response or partial response)

O=c1cc(CO)occ1O [Kojic acid, reference compound]
Whitening effect ([2]; 1.0 wt % test agent): Fair (30–50% of subjects exhibited a complete response or partial response)
